Like-named read-outs stand apart in the source and are kept apart here.
Key:
MV4-11 (leukemia) cells = assay: Cell proliferation inhibition in vitro, CellTiter-Glo luminescence, MV4-11; type: cell-based, human; details: MV4-11 cells, 120 hours
Protocol: (§1) By detecting the effect of compounds on cell activity in vitro in tumor cell lines TOV21G (ovarian cancer) and MV4-11 (leukemia), the inhibitory effect of compounds on cell proliferation was studied in this assay.
(§2) TOV21G cells and MV4-11 cells were purchased from American Type Culture Collection (ATCC).
MV-4-11 cells were cultured in IMDM medium (containing 20% of FBS). About 10,000 cells were inoculated in each well of a 96-well culture plate, and treated by adding different concentrations (0-10 μM) of compounds to be assayed. Each group was assayed in triplicate. Blank wells (containing medium only) and control wells (inoculated cells without being treated with drug) were set. Cells were cultured for 120 hours. 40 μL of Cell Titer-Glo solutions were added to each well, and the cells were incubated with shaking for 20 min in the dark. 100 μL of solution was transferred from each well to a 96-well blank plate, and the luminescence value was read by Biotek Synergy H1 multifunctional microplate reader.
(§3) Inhibition rate (%)=100%×(control well−assay well)/(control well−blank well)

ATR kinase = ATR kinase (Homo sapiens (Human), UniProt Q13535); assay: Assay of ATR kinase activity (time-resolved fluorescence, phosphorylation of p53-derived protein); type: biochemical; details: ATR/ATRIP, p53 substrate, 30 minutes at room temperature
Protocol: The amount of phosphorylated protein was determined by time-resolved fluorescence in this assay. The amount of phosphorylated protein was detected by anti-p53-phospho-(serine 15)-K-specific antibody (Cisbio, art. No.: 61GSTDLA) and d2 labeled anti-GST antibody (Cisbio, art. No. 61P08KAE). […] The reagents used above were purchased from Sigma or Invitrogen, except for those whose manufacturers were mentioned.
Operations were as Follows
4×p53 substrate working solution (40 nM) was prepared with 1×reaction buffer, and 2.5 μL of the 4×p53 substrate working solution was added to a 384-well analysis plate. […] 4×ATP working solution (2 mM) was prepared with deionized water, and 2.5 μL of the 4×ATP working solution was added to a 384-well analysis plate. The plates were incubated at room temperature in dark for 30 minutes. […] Finally, 5 μL of assay mixture (0.084 ng/μL Anti-phospho-p53 (ser15)-K and 5 ng/μL Anti-GST-d2) was added to the 384 well analysis plates, and incubated at room temperature overnight. The fluorescence signal was detected with ENVISION (Perkinelmer) instrument (excitation wavelength: 320 nm, emission wavelength: 665 nm and 615 nm). […] IC50 values of compounds were calculated by standard software for parameter fitting (GraphPad Prism 6.0).

[1] = system: TOV21G (ovarian cancer) cells; assay: Cell proliferation inhibition in vitro, CellTiter-Glo luminescence, TOV21G; type: cell-based, human; details: read-out: TOV21G/IC50/μM
Protocol: as §1, §2
About 1000 cells were inoculated in each well of a 96-well culture plate, and cultured for 24 hours. Different concentrations (0-10 μM) of compounds to be assayed were added to treat the cells. Each group was assayed in triplicate. Blank wells (containing medium only) and control wells (inoculated cells without being treated with drug) were set. Cells were cultured for 120 hours. 40 μL of Cell Titer-Glo solutions (Promega, #G7573) were added to each well, and the cells were incubated with shaking for 20 min in the dark.
as §3

[2] = In vivo pharmacokinetics in male ICR mice, oral gavage; details: mouse, 10 mg/kg, plasma
Protocol: In vivo pharmacokinetic studies were performed on the compounds of the present disclosure.
Male ICR mice (3 mice/group) were administered orally by gavage at a dose of 10 mg/kg. The plasma samples were collected before administration (0 h) and after administration (0.25, 0.5, 1, 2, 4, 6, 8, 24 h). The collected samples were subjected to LC/MS/analysis, and the data were collected. The relevant pharmacokinetic parameters were calculated by Analyst v1.6.2 (AB Applied Biosystems Company, USA) software using the collected analytical data.

[3] = In vitro stability assay in mouse liver microsome; type: in vitro ADME; details: mouse liver microsomes, compound 2.0 nM, with or without NADPH, within 60 minutes of incubation; read-out: Mouse liver microsome t1/2
Protocol: (§4) The compounds of the present disclosure were subjected to stability assay in liver microsome. The compound to be assayed (with a final concentration of 2.0 nM) was co-incubated with human/mouse liver microsomes with or without the addition of NADPH. The concentration of the compound in the supernatant was determined within 60 minutes of incubation.

ATM = ATM (Homo sapiens (Human), UniProt Q13315); assay: Kinase selectivity: inhibitory activity against ATM; type: biochemical; details: 3-fold serial dilution from 10 μM to 0.51 nM, 10 concentrations
Protocol: (§5) The compounds of the present disclosure were assayed for inhibition of the same family (ATM, DNA-PK, PI3K, mTOR): […]

PI3Kα = PI3Kα (Homo sapiens (Human), UniProt P42336); assay: Kinase selectivity: inhibitory activity against PI3Kα; type: biochemical; details: 3-fold serial dilution from 10 μM to 0.51 nM, 10 concentrations
Protocol: as §5

DNA-PK = DNA-PK (Homo sapiens (Human), UniProt P78527); assay: Kinase selectivity: inhibitory activity against DNA-PK; type: biochemical; details: 3-fold serial dilution from 10 μM to 0.51 nM, 10 concentrations; read-out: IC50/DNAPK
Protocol: as §5

PI3Kδ = PI3Kδ (Homo sapiens (Human), UniProt O00329); assay: Kinase selectivity: inhibitory activity against PI3Kδ; type: biochemical; details: 3-fold serial dilution from 10 μM to 0.51 nM, 10 concentrations
Protocol: as §5

[4] = In vitro stability assay in human liver microsome; type: in vitro ADME; details: human liver microsomes, compound 2.0 nM, with or without NADPH, within 60 minutes of incubation; read-out: Human liver microsome t1/2
Protocol: as §4

mTOR = mTOR (Homo sapiens (Human), UniProt P42345); assay: Kinase selectivity: inhibitory activity against mTOR; type: biochemical; details: 3-fold serial dilution from 10 μM to 0.51 nM, 10 concentrations
Protocol: as §5

[5] = Homo sapiens, TOV21G cells, 120 hours, CellTiter-Glo
[6] = TOV21G cells, 120 hours, CellTiter-Glo

Sequence of ATR kinase (Q13535 whole entry, looked up): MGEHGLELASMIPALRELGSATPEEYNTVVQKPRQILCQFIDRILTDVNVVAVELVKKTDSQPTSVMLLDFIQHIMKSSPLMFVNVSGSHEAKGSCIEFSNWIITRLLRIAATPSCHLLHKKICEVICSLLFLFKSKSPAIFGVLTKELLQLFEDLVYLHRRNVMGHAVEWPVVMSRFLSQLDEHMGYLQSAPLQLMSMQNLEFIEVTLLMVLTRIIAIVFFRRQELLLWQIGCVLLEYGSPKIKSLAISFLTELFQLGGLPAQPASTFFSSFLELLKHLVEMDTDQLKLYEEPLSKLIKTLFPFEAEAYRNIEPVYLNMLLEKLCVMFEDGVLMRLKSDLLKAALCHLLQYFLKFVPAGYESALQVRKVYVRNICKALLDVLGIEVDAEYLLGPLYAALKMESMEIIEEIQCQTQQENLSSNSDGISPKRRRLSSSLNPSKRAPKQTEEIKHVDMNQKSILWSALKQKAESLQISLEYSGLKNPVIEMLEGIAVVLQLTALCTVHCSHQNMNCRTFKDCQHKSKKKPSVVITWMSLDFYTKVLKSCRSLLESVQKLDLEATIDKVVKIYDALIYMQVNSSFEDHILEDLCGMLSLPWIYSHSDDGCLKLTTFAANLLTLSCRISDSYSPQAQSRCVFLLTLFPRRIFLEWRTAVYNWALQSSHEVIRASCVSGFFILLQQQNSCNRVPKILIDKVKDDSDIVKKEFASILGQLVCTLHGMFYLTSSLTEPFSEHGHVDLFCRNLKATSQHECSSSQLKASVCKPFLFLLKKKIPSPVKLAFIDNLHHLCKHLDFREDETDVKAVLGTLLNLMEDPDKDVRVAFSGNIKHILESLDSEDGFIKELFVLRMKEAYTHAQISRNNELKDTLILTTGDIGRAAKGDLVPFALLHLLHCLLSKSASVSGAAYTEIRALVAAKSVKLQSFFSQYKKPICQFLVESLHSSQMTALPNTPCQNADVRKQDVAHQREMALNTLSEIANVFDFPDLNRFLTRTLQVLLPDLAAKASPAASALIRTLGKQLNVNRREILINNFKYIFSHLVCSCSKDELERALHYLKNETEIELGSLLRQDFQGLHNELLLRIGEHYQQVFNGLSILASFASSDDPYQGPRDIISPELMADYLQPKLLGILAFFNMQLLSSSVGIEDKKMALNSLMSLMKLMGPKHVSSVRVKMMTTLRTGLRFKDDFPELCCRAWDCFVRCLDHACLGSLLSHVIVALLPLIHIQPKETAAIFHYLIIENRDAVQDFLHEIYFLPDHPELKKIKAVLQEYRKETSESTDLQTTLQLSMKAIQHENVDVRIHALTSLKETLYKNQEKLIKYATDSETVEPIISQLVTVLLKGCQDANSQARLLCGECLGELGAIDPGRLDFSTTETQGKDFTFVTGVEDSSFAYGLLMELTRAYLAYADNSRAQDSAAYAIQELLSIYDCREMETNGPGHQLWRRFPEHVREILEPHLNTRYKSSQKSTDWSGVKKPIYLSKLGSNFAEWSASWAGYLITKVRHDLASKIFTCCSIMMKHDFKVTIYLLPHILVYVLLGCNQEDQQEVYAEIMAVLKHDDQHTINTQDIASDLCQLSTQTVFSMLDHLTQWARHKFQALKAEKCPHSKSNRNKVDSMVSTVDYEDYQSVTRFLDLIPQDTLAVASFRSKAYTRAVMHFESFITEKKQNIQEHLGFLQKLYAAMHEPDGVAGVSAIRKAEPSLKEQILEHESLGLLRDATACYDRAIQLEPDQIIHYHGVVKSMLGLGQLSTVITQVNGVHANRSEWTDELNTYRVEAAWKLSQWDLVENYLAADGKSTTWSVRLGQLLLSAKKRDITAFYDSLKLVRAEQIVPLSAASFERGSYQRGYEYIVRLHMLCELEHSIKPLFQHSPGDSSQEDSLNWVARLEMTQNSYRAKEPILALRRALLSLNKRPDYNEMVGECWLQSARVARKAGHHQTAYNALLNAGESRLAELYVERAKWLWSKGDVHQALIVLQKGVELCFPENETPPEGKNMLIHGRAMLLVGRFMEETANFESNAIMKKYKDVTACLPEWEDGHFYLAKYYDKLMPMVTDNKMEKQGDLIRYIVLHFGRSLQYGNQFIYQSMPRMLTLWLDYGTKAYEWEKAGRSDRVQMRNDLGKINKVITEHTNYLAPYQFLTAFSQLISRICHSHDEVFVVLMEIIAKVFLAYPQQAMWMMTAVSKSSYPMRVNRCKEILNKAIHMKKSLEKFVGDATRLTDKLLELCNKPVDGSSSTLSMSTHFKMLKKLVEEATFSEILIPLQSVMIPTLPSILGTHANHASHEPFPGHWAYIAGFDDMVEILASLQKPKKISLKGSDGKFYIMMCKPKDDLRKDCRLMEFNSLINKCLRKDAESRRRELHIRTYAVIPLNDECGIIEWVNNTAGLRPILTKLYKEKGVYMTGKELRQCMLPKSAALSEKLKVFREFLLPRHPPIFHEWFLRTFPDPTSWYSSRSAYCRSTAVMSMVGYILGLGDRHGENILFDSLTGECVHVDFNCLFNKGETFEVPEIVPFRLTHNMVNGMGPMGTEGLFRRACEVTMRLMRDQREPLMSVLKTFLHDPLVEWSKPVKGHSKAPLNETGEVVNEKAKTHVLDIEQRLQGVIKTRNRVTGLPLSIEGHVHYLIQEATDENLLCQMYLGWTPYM
Sequence of ATR kinase (Q8WXE1 whole entry partner, looked up): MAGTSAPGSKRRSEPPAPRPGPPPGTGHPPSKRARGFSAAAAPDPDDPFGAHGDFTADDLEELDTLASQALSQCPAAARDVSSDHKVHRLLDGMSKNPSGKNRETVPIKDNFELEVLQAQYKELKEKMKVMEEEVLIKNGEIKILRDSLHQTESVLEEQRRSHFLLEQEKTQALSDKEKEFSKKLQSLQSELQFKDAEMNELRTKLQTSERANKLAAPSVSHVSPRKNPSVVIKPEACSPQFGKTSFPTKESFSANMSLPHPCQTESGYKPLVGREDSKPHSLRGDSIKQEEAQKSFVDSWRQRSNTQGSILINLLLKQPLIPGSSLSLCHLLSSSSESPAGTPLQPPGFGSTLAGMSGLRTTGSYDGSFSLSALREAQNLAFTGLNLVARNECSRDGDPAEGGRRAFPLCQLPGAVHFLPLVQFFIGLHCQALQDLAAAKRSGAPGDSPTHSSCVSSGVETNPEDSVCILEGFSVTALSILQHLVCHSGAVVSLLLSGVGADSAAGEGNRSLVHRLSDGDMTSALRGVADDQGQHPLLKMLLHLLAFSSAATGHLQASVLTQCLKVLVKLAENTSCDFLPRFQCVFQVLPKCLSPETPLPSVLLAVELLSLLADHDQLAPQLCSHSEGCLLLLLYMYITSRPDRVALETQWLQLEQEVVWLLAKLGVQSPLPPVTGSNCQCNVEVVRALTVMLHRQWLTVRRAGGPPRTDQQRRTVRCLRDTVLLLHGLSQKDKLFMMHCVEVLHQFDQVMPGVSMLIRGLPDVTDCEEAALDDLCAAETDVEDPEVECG

Compound | IC50 (MV4-11 (leukemia) cells; Homo sapiens) [µM] | IC50 (ATR kinase) [nM] | IC50 [1, 5] [µM] | IC50 (MV4-11 (leukemia) cells) [µM] | IC50 [1, 6] [µM] | further results
Cc1nn(C2CCNCC2)c(C(F)(F)F)c1-c1cc(N2CCOC[C@H]2C)nc2c(-c3ccn[nH]3)cnn12 [Compound A1] | 0.66 | 70 | 0.66 | – | – | –
Cc1c(-c2cc(N3CCOC[C@H]3C)nc3c(-c4ccn[nH]4)cnn23)c(C(F)(F)F)nn1C1CCNCC1 [Compound A2] | 0.78 | 33 | 0.83 | – | – | –
Cc1nn(C2CCNCC2)c(C)c1-c1cc(N2CCOC[C@H]2C)nc2c(-c3ccn[nH]3)cnn12 [Compound A3] | – | 184 | – | – | – | –
Cc1noc(C)c1-c1cc(N2CCOC[C@H]2C)nc2c(-c3ccn[nH]3)cnn12 [Compound A4] | 0.75 | 74 | 1.05 | – | – | –
Cc1nn(C2CCNCC2)c(C(F)(F)F)c1-c1cc(N2CCOC[C@H]2C)nc2c(-c3ccccn3)cnn12 [Compound A6] | – | 17 | – | – | – | –
Cc1nn(C2CCNCC2)c(C(F)(F)F)c1-c1cc(N2CCOC[C@H]2C)nc2c(-c3cccs3)cnn12 [Compound A7] | – | 12 | – | – | – | –
Cc1nnn(C)c1-c1cc(N2CCOC[C@H]2C)nc2c(-c3ccn[nH]3)cnn12 [Compound A8] | – | 84 | – | 0.68 | 0.78 | –
Cc1nn(-c2cncc(F)c2)c(C)c1-c1cc(N2CCOC[C@H]2C)nc2c(-c3ccn[nH]3)cnn12 [Compound A9] | 0.25 | 2 | – | – | – | AUC [2]: 6950 ng·h/mL; Cmax [2]: 1810 ng/mL; Tmax [2]: 0.25 h; half-life [2]: 3.3 h; half-life at 2 nM [3]: 3.63 h; IC50 (ATM): 6370 nM; IC50 (PI3Kα): 4060 nM; IC50 (DNA-PK): 303 nM; IC50 (PI3Kδ): 1130 nM; half-life at 2 nM [4]: 1.43 h; IC50 (mTOR): 1830 nM; IC50 ([1]; Homo sapiens, TOV21G, 120 h): 0.28 µM
Cc1nn(-c2cncc(C(F)F)c2)c(C)c1-c1cc(N2CCOC[C@H]2C)nc2c(-c3ccn[nH]3)cnn12 [Compound A10] | 0.27 | 3 | – | – | – | AUC [2]: 14300 ng·h/mL; Cmax [2]: 4890 ng/mL; Tmax [2]: 0.25 h; half-life [2]: 1.76 h; half-life at 2 nM [3]: 2.7 h; IC50 (ATM): 4120 nM; IC50 (DNA-PK): 1260 nM; half-life at 2 nM [4]: 0.6 h; IC50 ([1]; Homo sapiens, TOV21G, 120 h): 0.3 µM
Cc1nn(-c2cncc(C#N)c2)c(C)c1-c1cc(N2CCOC[C@H]2C)nc2c(-c3ccn[nH]3)cnn12 [Compound A11] | 0.5 | – | 0.38 | – | – | –
Cc1nn(-c2cncc(Cl)c2)c(C)c1-c1cc(N2CCOC[C@H]2C)nc2c(-c3ccn[nH]3)cnn12 [Compound A12] | 0.26 | 2 | 0.33 | – | – | AUC [2]: 8330 ng·h/mL; Cmax [2]: 2270 ng/mL; Tmax [2]: 0.33 h; half-life [2]: 1.98 h
Cc1nn(-c2ccnnc2)c(C)c1-c1cc(N2CCOC[C@H]2C)nc2c(-c3ccn[nH]3)cnn12 [Compound A13] | 0.28 | 2 | 0.21 | – | – | –
Cc1nn(-c2ccc(=O)[nH]c2)c(C)c1-c1cc(N2CCOC[C@H]2C)nc2c(-c3ccn[nH]3)cnn12 [Compound A14] | – | 3 | – | – | – | –
Cc1nn(C(=O)N2CCNCC2)c(C)c1-c1cc(N2CCOC[C@H]2C)nc2c(-c3ccn[nH]3)cnn12 [Compound A15] | – | 13 | – | 0.45 | 0.27 | –
Cc1nn(C2CCNC[C@H]2F)c(C)c1-c1cc(N2CCOC[C@H]2C)nc2c(-c3ccn[nH]3)cnn12 (some centres unmarked) [Compound A16-II] | – | 31 | – | 0.57 | 0.52 | –
Cc1nn(C2CCNC[C@@H]2F)c(C)c1-c1cc(N2CCOC[C@H]2C)nc2c(-c3ccn[nH]3)cnn12 (some centres unmarked) [Compound A16-I] | – | 33 | – | 0.89 | 1.4 | –
Cc1nn(-c2cncc(C(N)=O)c2)c(C)c1-c1cc(N2CCOC[C@H]2C)nc2c(-c3ccn[nH]3)cnn12 [Compound A17] | – | 3 | – | 0.85 | 1.29 | –
Cc1nn(CCO)c(C)c1-c1cc(N2CCOC[C@H]2C)nc2c(-c3ccn[nH]3)cnn12 [Compound A18] | – | 8 | – | 0.74 | 0.56 | –
Cc1nn(-c2cncc(O)c2)c(C)c1-c1cc(N2CCOC[C@H]2C)nc2c(-c3ccn[nH]3)cnn12 [Compound A19] | – | 4 | – | 0.6 | 0.66 | –
C[C@@H]1COCCN1c1cc(C2(O)CCOCC2)n2ncc(-c3ccn[nH]3)c2n1 [Compound A20] | – | 188 | – | 0.92 | 0.73 | –
C[C@@H]1COCCN1c1cc(-c2cccnc2C(F)(F)F)n2ncc(-c3ccn[nH]3)c2n1 [Compound A21] | 0.74 | 52 | 0.63 | – | – | –
Cc1nn(-c2cccnc2)c(C)c1-c1cc(N2CCOC[C@H]2C)nc2c(-c3ccn[nH]3)cnn12 [Compound A22] | 0.23 | 2 | 0.19 | – | – | –
Cc1cncc(-n2nc(C)c(-c3cc(N4CCOC[C@H]4C)nc4c(-c5ccn[nH]5)cnn34)c2C)c1 [Compound A23] | 0.3 | 4 | 0.26 | – | – | –
Cc1nn(-c2ccncc2)c(C)c1-c1cc(N2CCOC[C@H]2C)nc2c(-c3ccn[nH]3)cnn12 [Compound A24] | 0.23 | 2 | 0.15 | – | – | –

— US20230271968A1, “PYRAZOLOPYRIMIDINE COMPOUND USED AS ATR KINASE INHIBITOR” (priority 2020, published 2023)
